20 molecules from patent publication US9346809B2 (LEO PHARMA A/S, priority 2009, dated 2016) can be followed below.

Holding throughout (type): biochemical
For assay [1], the target named is T1, JAK1 (aa 850-1154, catalytic domain, GST-tag) (Homo sapiens, UniProt P23458).
T1 construct: JAK1 (aa 850-1154) and TYK2 (aa 871-1187) are expressed with an N-terminally fused GST-tag; GST (N); purchased Carna Biosciences, Inc; host or cells: baculovirus expression system
Description: JAK kinase assay (HTRF, phosphorylation of TK substrate-biotin), JAK1. The following applies: ATP at Km (7 μM); read-out: JAK1 kinase inhibitory activity (EC50 indicator). The procedure, abridged: (§1)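 EC50 values come from HTRF signal of phospho-peptide detected by STK Ab Cryptate and Streptavidin-XL665 after overnight incubation. Reactions ran 20-30 min at RT in Hepes pH 7.0, 0.01% BSA, 1 mM DTT, with ATP at Km: 7, 4, 2 and 13 μM for JAK1, JAK2, JAK3, TYK2.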

Assay [2] concerns the target T2, JAK3 (catalytic domain, His-tag) (Homo sapiens, UniProt P52333).
T2 construct: All four purified enzymes contain only the catalytic domain; His (N); purchased Carna Biosciences, Inc; host or cells: baculovirus expression system
As to the kind of experiment: JAK kinase assay (HTRF, phosphorylation of TK substrate-biotin), JAK3. The note with it: ATP at Km (2 μM); read-out: JAK3 kinase inhibitory activity (EC50 indicator). The procedure, abridged:
as §1

Assay [3] deals with T3, TYK2 (aa 871-1187, catalytic domain, GST-tag) (Homo sapiens, UniProt P29597).
T3 construct: JAK1 (aa 850-1154) and TYK2 (aa 871-1187) are expressed with an N-terminally fused GST-tag; GST (N); purchased Carna Biosciences, Inc; host or cells: baculovirus expression system
T3 sequence (P29597 871-1187): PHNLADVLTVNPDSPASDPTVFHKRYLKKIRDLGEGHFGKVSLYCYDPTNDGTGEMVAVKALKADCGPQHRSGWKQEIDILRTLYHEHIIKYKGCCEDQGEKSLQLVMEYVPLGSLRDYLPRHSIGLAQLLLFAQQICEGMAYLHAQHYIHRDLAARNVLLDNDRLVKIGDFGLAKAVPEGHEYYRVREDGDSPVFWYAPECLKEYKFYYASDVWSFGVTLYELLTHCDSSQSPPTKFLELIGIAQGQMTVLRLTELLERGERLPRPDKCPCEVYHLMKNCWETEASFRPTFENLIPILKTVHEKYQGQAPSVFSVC
As to the kind of experiment: JAK kinase assay (HTRF, phosphorylation of TK substrate-biotin), TYK2. The note with it: ATP at Km (13 μM); read-out: TYK2 kinase inhibitory activity (EC50 indicator). Put shortly:
as §1

Assay [4] addresses T4, JAK2 (catalytic domain, His-tag) (Homo sapiens, UniProt O60674).
T4 construct: All four purified enzymes contain only the catalytic domain; His (N); purchased Carna Biosciences, Inc; host or cells: baculovirus expression system
As to the kind of experiment: JAK kinase assay (HTRF, phosphorylation of TK substrate-biotin), JAK2. The note with it: ATP at Km (4 μM); read-out: JAK2 kinase inhibitory activity (EC50 indicator). Put shortly:
as §1

The structures appear in SMILES notation. pEC50: −log10 of the molar value. A value given as a limit tells only on which side of the number the result lay.

T4 sequence (O60674 849-1124 limits assumed): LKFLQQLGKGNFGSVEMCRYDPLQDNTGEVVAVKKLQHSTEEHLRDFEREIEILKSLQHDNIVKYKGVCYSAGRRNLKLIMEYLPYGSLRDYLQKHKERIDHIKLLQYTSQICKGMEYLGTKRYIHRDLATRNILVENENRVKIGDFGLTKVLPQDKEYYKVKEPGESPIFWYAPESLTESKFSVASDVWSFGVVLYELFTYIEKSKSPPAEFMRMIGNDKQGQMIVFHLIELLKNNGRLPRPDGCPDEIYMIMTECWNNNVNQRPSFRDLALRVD
T1 sequence (P23458 850-1154): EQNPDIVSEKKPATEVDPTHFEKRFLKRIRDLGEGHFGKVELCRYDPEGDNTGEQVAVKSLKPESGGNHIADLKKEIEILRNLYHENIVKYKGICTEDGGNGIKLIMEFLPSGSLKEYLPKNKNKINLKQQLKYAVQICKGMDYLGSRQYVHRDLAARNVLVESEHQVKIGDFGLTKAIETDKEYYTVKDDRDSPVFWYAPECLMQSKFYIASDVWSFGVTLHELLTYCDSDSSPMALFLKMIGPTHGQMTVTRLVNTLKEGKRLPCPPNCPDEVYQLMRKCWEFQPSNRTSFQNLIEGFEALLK
T2 sequence (P52333 822-1111 limits assumed): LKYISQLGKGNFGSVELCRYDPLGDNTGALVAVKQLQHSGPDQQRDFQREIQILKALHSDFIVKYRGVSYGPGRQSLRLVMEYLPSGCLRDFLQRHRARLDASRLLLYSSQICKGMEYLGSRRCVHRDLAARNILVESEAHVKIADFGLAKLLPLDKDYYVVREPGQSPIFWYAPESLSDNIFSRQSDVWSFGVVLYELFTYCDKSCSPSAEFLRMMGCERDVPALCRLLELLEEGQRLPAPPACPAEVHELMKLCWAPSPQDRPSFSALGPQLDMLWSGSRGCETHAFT

`Cc1c[nH]c2ncnc(N3CCN(C(=O)c4cccc(C#N)c4)C4(CC4)C3)c12` [Example 119, 3-[7-(5-Methyl-7H-pyrrolo[2,3-d]pyrimidin-4-yl)-4,7-diaza-spiro[2.5]octane-4-carbonyl]-benzonitrile]: the pEC50 in assay [1], in assay [2], in assay [3] and in assay [4] was under 6.30 in each case.
Consider `Cc1c[nH]c2ncnc(N3CCN(C(=O)c4cnc5ccccc5n4)C4(CC4)C3)c12` [Example 120, [7-(5-Methyl-7H-pyrrolo[2,3-d]pyrimidin-4-yl)-4,7-diaza-spiro[2.5]oct-4-yl]-quinoxalin-2-yl-methanone], for which the pEC50 in assay [1], in assay [2], in assay [3] and in assay [4] was under 6.30 each time.
In the case of `COC(=O)c1cc2c(N3CCN(C(=O)Cc4cccc(CC#N)c4)C4(CC4)C3)ncnc2[nH]1` [Example 121, 4-{4-[2-(3-Cyanomethyl-phenyl)-acetyl]-4,7-diaza-spiro[2.5]oct-7-yl}-7H-pyrrolo[2,3-d]pyrimidine-6-carboxylic acid methyl ester], the pEC50 in assay [1], in assay [2], in assay [3] and in assay [4] was under 6.30 in each case.
`COC(=O)c1cc2c(N3CCN(C(=O)Cc4ccc(CC#N)cc4)C4(CC4)C3)ncnc2[nH]1` [Example 122, 4-{4-[2-(4-Cyanomethyl-phenyl)-acetyl]-4,7-diaza-spiro[2.5]oct-7-yl}-7H-pyrrolo[2,3-d]pyrimidine-6-carboxylic acid methyl ester]: the pEC50 in assay [1], in assay [2], in assay [3] and in assay [4] was under 6.30 in each case.
On to `COC(=O)c1cc2c(N3CCN(C(=O)Cc4cccc(C#N)c4)C4(CC4)C3)ncnc2[nH]1` [Example 123, 4-{4-[2-(3-Cyano-phenyl)-acetyl]-4,7-diaza-spiro[2.5]oct-7-yl}-7H-pyrrolo[2,3-d]pyrimidine-6-carboxylic acid methyl ester], for which the pEC50 in assay [1], in assay [2], in assay [3] and in assay [4] was under 6.30 in each case.
On to `COC(=O)c1cc2c(N3CCN(C(=O)Cc4ccc(C#N)cc4)C4(CC4)C3)ncnc2[nH]1` [Example 124, 4-{4-[2-(4-Cyano-phenyl)-acetyl]-4,7-diaza-spiro[2.5]oct-7-yl}-7H-pyrrolo[2,3-d]pyrimidine-6-carboxylic acid methyl ester], for which the pEC50 in assay [1], in assay [2], in assay [3] and in assay [4] was under 6.30 throughout.
Consider `O=C(C1Cc2ccccc21)N1CCN(c2ncnc3[nH]ccc23)CC12CC2` (centres unmarked) [Example 125, Bicyclo[4.2.0]octa-1(6),2,4-trien-7-yl-[7-(7H-pyrrolo[2,3-d]pyrimidin-4-yl)-4,7-diaza-spiro[2.5]oct-4-yl]-methanone], for which the pEC50 in assay [1] was over 7.00; in assay [2] it was 6.30 to 7.00; in assay [3], under 6.30; in assay [4] it was over 7.00.
Turning to `O=C1CC(C(=O)N2CCN(c3ncnc4[nH]ccc34)CC23CC3)c2ccccc21` (centres unmarked) [Example 126, 3-[7-(7H-Pyrrolo[2,3-d]pyrimidin-4-yl)-4,7-diaza-spiro[2.5]octane-4-carbonyl]-indan-1-one], the pEC50 was over 7.00 in assay [1], 6.30 to 7.00 in assay [2], under 6.30 in assay [3] and over 7.00 in assay [4].
As for `NS(=O)(=O)c1cc(OCC(=O)N2C3CCC2CN(c2ncnc4[nH]ccc24)C3)ccc1Cl` [Example 127, 2-Chloro-5-{2-oxo-2-[3-(7H-pyrrolo[2,3-d]pyrimidin-4-yl)-3,8-diaza-bicyclo[3.2.1]oct-8-yl]-ethoxy}-benzenesulfonamide], the pEC50 in assay [1] is over 7.00; in assay [2], over 7.00; in assay [3] it was under 6.30; in assay [4], over 7.00.
Consider `N#Cc1ccc(C(=O)C(=O)N2C3CCC2CN(c2ncnc4[nH]ccc24)C3)cc1` [Example 128, 4-{2-Oxo-2-[3-(7H-pyrrolo[2,3-d]pyrimidin-4-yl)-3,8-diaza-bicyclo[3.2.1]oct-8-yl]-acetyl}-benzonitrile], for which the pEC50 is over 7.00 in assay [1], 6.30 to 7.00 in assay [2], under 6.30 in assay [3] and over 7.00 in assay [4].
As to `N#Cc1ccc2[nH]c(C(=O)N3C4CCC3CN(c3ncnc5[nH]ccc35)C4)cc2c1` [Example 129, 2-[3-(7H-Pyrrolo[2,3-d]pyrimidin-4-yl)-3,8-diaza-bicyclo[3.2.1]octane-8-carbonyl]-1H-indole-5-carbonitrile], the pEC50 was over 7.00 in assay [1], over 7.00 in assay [2], under 6.30 in assay [3] and over 7.00 in assay [4].
For `CS(=O)(=O)c1ccc2[nH]c(C(=O)N3C4CCC3CN(c3ncnc5[nH]ccc35)C4)cc2c1` [Example 130, (5-Methanesulfonyl-1H-indol-2-yl)-[3-(7H-pyrrolo[2,3-d]pyrimidin-4-yl)-3,8-diaza-bicyclo[3.2.1]oct-8-yl]-methanone], the negative-log EC50 (pEC50) in assay [1] is over 7.00; in assay [2], over 7.00; in assay [3], 6.30 to 7.00; in assay [4], over 7.00.
Turning to `CS(=O)(=O)c1ccc(C(=O)N2C3CCC2CN(c2ncnc4[nH]ccc24)C3)cc1F` [Example 131, (3-Fluoro-4-methanesulfonyl-phenyl)-[3-(7H-pyrrolo[2,3-d]pyrimidin-4-yl)-3,8-diaza-bicyclo[3.2.1]oct-8-yl]-methanone], the pEC50 in assay [1] is over 7.00; in assay [2], 6.30 to 7.00; in assay [3], 6.30 to 7.00; in assay [4], over 7.00.
Take `O=C(C1Cc2ccccc21)N1C2CCC1CN(c1ncnc3[nH]ccc13)C2` (centres unmarked) [Example 132, Bicyclo[4.2.0]octa-1(6),2,4-trien-7-yl-[3-(7H-pyrrolo[2,3-d]pyrimidin-4-yl)-3,8-diaza-bicyclo[3.2.1]oct-8-yl]-methanone]: the pEC50 was 6.30 to 7.00 in assay [1], 6.30 to 7.00 in assay [2], under 6.30 in assay [3] and 6.30 to 7.00 in assay [4].
For the molecule `O=C1c2ccccc2CC1C(=O)N1C2CCC1CN(c1ncnc3[nH]ccc13)C2` (centres unmarked) [Example 133, 2-[3-(7H-Pyrrolo[2,3-d]pyrimidin-4-yl)-3,8-diaza-bicyclo[3.2.1]octane-8-carbonyl]-indan-1-one], the pEC50 was under 6.30 in assay [1], under 6.30 in assay [2], under 6.30 in assay [3] and 6.30 to 7.00 in assay [4].
Turning to `CS(=O)(=O)c1ccc(CC(=O)N2C3CCC2CN(c2ncnc4[nH]ccc24)C3)cc1` [Example 134, 2-(4-Methanesulfonyl-phenyl)-1-[3-(7H-pyrrolo[2,3-d]pyrimidin-4-yl)-3,8-diaza-bicyclo[3.2.1]oct-8-yl]-ethanone], the pEC50 in assay [1] is 6.30 to 7.00; in assay [2], under 6.30; in assay [3] it was under 6.30; in assay [4], 6.30 to 7.00.
For `CS(=O)(=O)c1cccc(C(=O)N2C3CCC2CN(c2ncnc4[nH]ccc24)C3)c1` [Example 135, (3-Methanesulfonyl-phenyl)-[3-(7H-pyrrolo[2,3-d]pyrimidin-4-yl)-3,8-diaza-bicyclo[3.2.1]oct-8-yl]-methanone], the pEC50 is over 7.00 in assay [1], 6.30 to 7.00 in assay [2], under 6.30 in assay [3] and over 7.00 in assay [4].
Consider `O=C(c1cc2cc(F)ccc2[nH]1)N1C2CCC1CN(c1ncnc3[nH]ccc13)C2` [Example 136, (5-Fluoro-1H-indol-2-yl)-[3-(7H-pyrrolo[2,3-d]pyrimidin-4-yl)-3,8-diaza-bicyclo[3.2.1]oct-8-yl]-methanone], for which the pEC50 in assay [1] is over 7.00; in assay [2], over 7.00; in assay [3], 6.30 to 7.00; in assay [4], over 7.00.
On to `O=C([C@@H]1CCCc2ccccc21)N1C2CCC1CN(c1ncnc3[nH]ccc13)C2` [Example 137, [3-(7H-Pyrrolo[2,3-d]pyrimidin-4-yl)-3,8-diaza-bicyclo[3.2.1]oct-8-yl]-(1,2,3,4-tetrahydro-naphthalen-1-yl)-methanone], for which the pEC50 was under 6.30 in assay [1], under 6.30 in assay [2], under 6.30 in assay [3] and 6.30 to 7.00 in assay [4].
With `Cc1ccc(C(=O)N2C3CCC2CN(c2ncnc4[nH]ccc24)C3)cc1S(N)(=O)=O` [Example 138, 2-Methyl-5-[3-(7H-pyrrolo[2,3-d]pyrimidin-4-yl)-3,8-diaza-bicyclo[3.2.1]octane-8-carbonyl]-benzenesulfonamide], the pEC50 in assay [1] was over 7.00; in assay [2] it was over 7.00; in assay [3], under 6.30; in assay [4] it was over 7.00.
